From patent US20250368666A1, “INDAZOLE COMPOUNDS” (TYRA BIOSCIENCES, INC., priority 2022, published 2025)
Like-named read-outs stand apart in the source and are kept apart here.

How the values were obtained:
Test in all cases: Kinase binding assay (kinase-tagged T7 phage, affinity beads, qPCR), Kd
[1] = molecular target: T1, FGFR3 (Homo sapiens, UniProt P22607); conditions: read-out: FGFR3 (Kd nM)
T1 construct: made in house; host or cells: E. coli (BL21-derived), T7 phage
Procedure, shortened: (§1)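 Competition binding; kinase-tagged T7 phage lysate vs immobilised biotinylated ligand on streptavidin beads, 0.9% DMSO final. 11-pt 3-fold dilutions, 3 DMSO controls. qPCR of eluted kinase; Kd by Hill fit, slope −1.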

[2] = molecular target: T2, FGFR4 (Homo sapiens, UniProt P22455); conditions: read-out: FGFR4 (Kd nM)
T2 construct: made in house; host or cells: E. coli (BL21-derived), T7 phage
T2 sequence (P22455 22-802): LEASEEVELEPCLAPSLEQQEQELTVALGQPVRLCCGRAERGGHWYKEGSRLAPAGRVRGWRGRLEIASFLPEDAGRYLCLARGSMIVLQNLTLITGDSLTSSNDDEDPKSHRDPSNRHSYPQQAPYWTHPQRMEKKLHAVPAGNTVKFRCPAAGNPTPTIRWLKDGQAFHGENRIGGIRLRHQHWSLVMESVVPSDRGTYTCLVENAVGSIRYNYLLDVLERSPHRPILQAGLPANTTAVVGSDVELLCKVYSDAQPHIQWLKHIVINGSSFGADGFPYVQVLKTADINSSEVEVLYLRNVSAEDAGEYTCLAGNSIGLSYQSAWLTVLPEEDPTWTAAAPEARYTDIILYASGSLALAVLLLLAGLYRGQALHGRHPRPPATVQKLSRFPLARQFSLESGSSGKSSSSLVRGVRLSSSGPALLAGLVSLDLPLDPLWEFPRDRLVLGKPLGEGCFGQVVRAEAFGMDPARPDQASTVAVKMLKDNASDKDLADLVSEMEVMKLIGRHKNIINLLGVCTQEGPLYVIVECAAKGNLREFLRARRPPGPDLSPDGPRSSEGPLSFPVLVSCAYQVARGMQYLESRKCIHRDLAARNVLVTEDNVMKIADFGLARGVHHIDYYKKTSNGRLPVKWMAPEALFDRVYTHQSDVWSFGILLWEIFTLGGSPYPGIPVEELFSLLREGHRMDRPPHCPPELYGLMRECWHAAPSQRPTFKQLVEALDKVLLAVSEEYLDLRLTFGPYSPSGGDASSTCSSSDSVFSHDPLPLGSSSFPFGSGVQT
Procedure, shortened: as §1

[3] = molecular target: T3, FGFR1 (Homo sapiens, UniProt P11362); conditions: read-out: FGFR1 (Kd nM)
T3 construct: made in house; host or cells: E. coli (BL21-derived), T7 phage
T3 sequence (P11362 22-822): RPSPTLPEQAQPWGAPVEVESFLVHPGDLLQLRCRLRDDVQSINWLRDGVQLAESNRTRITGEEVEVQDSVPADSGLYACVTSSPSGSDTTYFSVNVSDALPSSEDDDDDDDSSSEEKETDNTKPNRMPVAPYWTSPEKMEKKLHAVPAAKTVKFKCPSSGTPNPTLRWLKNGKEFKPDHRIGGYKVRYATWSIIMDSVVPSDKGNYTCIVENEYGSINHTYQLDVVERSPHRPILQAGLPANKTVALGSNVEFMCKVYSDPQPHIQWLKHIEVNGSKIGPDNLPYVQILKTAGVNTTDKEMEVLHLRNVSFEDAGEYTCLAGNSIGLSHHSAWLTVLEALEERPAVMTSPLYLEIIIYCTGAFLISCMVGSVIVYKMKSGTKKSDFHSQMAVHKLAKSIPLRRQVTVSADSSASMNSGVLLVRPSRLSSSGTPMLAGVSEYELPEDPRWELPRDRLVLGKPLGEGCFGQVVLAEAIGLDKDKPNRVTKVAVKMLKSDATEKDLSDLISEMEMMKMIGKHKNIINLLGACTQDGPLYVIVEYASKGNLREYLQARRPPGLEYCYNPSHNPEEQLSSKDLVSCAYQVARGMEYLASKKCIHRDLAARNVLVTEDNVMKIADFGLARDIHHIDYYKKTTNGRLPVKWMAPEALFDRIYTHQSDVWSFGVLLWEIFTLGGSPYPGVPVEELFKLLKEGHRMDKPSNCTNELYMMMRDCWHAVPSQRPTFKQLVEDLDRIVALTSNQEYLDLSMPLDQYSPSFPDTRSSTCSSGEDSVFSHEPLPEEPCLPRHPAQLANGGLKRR
Procedure, shortened: as §1

[4] = molecular target: T4, FGFR3 (V555M) (Homo sapiens, UniProt P22607, V555M); conditions: V555M mutant; read-out: FGFR3 (V555M) (Kd nM)
T4 construct: made in house; host or cells: E. coli (BL21-derived), T7 phage
T4 sequence (P22607 23-806 V555M): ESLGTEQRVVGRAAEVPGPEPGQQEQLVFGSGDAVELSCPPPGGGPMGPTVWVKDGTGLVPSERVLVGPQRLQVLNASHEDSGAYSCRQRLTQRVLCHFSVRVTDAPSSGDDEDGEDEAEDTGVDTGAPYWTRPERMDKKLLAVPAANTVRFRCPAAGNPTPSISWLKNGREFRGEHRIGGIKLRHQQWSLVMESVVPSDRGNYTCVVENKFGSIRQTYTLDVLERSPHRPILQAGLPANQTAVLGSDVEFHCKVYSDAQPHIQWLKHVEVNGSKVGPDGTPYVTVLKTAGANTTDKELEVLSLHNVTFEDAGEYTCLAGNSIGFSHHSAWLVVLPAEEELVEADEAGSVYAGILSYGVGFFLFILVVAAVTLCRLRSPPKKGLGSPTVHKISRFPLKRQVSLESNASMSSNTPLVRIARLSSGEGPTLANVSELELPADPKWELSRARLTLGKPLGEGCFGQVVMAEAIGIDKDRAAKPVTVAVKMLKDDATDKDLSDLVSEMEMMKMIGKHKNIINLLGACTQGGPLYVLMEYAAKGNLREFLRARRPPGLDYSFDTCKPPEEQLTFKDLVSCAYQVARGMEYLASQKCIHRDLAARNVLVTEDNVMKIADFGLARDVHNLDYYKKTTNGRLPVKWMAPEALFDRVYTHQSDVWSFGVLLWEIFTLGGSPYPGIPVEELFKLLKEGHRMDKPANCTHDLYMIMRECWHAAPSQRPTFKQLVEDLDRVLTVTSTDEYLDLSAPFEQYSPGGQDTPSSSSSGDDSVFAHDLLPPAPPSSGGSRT
Procedure, shortened: as §1

[5] = molecular target: T5, FGFR2 (Homo sapiens, UniProt P21802); conditions: read-out: FGFR2 (Kd nM)
T5 construct: made in house; host or cells: E. coli (BL21-derived), T7 phage
T5 sequence (P21802 22-821): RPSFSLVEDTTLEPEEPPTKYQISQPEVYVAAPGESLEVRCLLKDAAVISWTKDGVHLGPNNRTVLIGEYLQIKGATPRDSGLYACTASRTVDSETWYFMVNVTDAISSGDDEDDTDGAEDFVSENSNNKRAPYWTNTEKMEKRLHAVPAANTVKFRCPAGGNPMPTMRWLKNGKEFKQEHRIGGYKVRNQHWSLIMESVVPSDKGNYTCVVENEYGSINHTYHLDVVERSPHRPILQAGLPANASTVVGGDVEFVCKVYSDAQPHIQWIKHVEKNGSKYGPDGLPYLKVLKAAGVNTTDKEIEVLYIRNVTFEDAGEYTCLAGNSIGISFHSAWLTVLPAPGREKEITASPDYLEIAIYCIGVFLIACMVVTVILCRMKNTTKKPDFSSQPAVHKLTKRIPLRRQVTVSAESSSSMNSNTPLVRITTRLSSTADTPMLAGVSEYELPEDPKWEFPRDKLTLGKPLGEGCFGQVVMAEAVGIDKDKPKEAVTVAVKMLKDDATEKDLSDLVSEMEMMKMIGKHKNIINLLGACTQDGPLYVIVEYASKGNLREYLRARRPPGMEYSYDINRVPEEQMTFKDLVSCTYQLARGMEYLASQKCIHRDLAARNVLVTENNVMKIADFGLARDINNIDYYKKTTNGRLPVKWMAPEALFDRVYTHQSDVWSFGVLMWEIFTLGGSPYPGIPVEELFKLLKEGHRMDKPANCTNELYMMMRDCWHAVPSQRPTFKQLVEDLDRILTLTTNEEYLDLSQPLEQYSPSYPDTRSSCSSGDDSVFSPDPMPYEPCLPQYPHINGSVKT
Procedure, shortened: as §1

[6] = kinase binding assay, 11-point 3-fold dilution series

T1 sequence (P22607 23-806): as the sequence (P22607 23-806 V555M) above, with M533V counted along it

C[C@@H](Oc1ccc2[nH]nc(-c3ccc(N4CC(C)(N5CCP(C)(=O)CC5)C4)nc3)c2c1)c1c(Cl)cncc1Cl [Example 226, (R)-1-(1-(5-(5-(1-(3,5-dichloropyridin-4-yl)ethoxy)-1H-indazol-3-yl)pyridin-2-yl)-3-methylazetidin-3-yl)-4-methyl-1,4-azaphosphinane 4-oxide]
Kd [1]: 1 to 50 nM
Kd [2]: 1 to 50 nM
Kd [3]: 1 to 50 nM
Kd [4]: 1 to 50 nM
Kd [5]: 1 to 50 nM

C[C@@H](Oc1ccc2[nH]nc(-c3ccc(N4CC(C)(N5C[C@H]6C[C@@H]5CO6)C4)nc3)c2c1)c1c(Cl)cncc1Cl [Example 231, (1R,4R)-5-(1-(5-(5-((R)-1-(3,5-dichloropyridin-4-yl)ethoxy)-1H-indazol-3-yl)pyridin-2-yl)-3-methylazetidin-3-yl)-2-oxa-5-aza-bicyclo[2.2.1]hep-tane]
Kd [1]: 1 to 50 nM
Kd [2]: 1 to 50 nM
Kd [3]: 1 to 50 nM
Kd [4]: 1 to 50 nM
Kd [5]: 1 to 50 nM

C[C@@H](Oc1cc2c(-c3cnc(N4CC(C)(NCCO)C4)c(F)c3)n[nH]c2cc1F)c1c(Cl)cncc1Cl [Example 165]
Kd [1]: 1 to 50 nM
Kd [2]: 1 to 50 nM
Kd [3]: 1 to 50 nM
Kd [4]: 1 to 50 nM
Kd [5]: 1 to 50 nM

C=CCNC1(C)CN(c2ncc(-c3n[nH]c4ccc(O[C@H](C)c5c(Cl)cncc5Cl)cc34)cn2)C1 [Example 234, (R)-N-ally1-1-(5-(5-(1-(3,5-dichloropyridin-4-yl)ethoxy)-1H-indazol-3-yl)pyrimidin-2-yl)-3-methylazetidin-3-amine]
Kd [1]: 1 to 50 nM
Kd [2]: 1 to 50 nM
Kd [3]: 1 to 50 nM
Kd [4]: 1 to 50 nM
Kd [5]: 1 to 50 nM

COCCN(C)C1(C)CN(c2ncc(-c3n[nH]c4ccc(O[C@H](C)c5c(Cl)cncc5Cl)cc34)cn2)C1 [Example 79, (R)-1-(5-(5-(1-(3,5-dichloropyridin-4-yl)ethoxy)-1H-indazol-3-yl)pyrimidin-2-yl)-N-(2-methoxyethyl)-N,3-dimethylazetidin-3-amine]
Kd [1]: 1 to 50 nM
Kd [2]: 1 to 50 nM
Kd [3]: 1 to 50 nM
Kd [4]: 1 to 50 nM
Kd [5]: 1 to 50 nM

C[C@H](Oc1ccc2[nH]nc(-c3cnc(N4C[C@H](CS(C)(=O)=O)[C@H]4C)c(F)c3)c2c1)c1c(Cl)cncc1Cl [Example 208, 5-((S)-1-(3,5-dichloropyridin-4-yl)ethoxy)-3-(5-fluoro-6-((2R,3S)-2-methyl-3-((meth-ylsulfonyl)meth-yl)azetidin-1-yl)pyridin-3-yl)-1H-indazole]
Kd [1]: 50 to 300 nM
Kd [2]: 300 to 1000 nM
Kd [3]: > 1000 nM
Kd [4]: 50 to 300 nM
Kd [5]: > 1000 nM

COc1cc2[nH]nc(-c3cnc(N4CC(C)(NCCO)C4)nc3)c2cc1O[C@H](C)c1c(Cl)cncc1Cl [Example 86, (R)-2-((1-(5-(5-(1-(3,5-dichloropyridin-4-yl)ethoxy)-6-methoxy-1H-indazol-3-yl)pyrimidin-2-yl)-3-methylazetidin-3-yl)amino)ethan-1-ol]
Kd [1]: 1 to 50 nM
Kd [2]: 1 to 50 nM
Kd [3]: 1 to 50 nM
Kd [4]: 1 to 50 nM
Kd [5]: 1 to 50 nM

CC(C)NC1(C)CN(c2ncc(-c3n[nH]c4ccc(O[C@H](C)c5c(Cl)cncc5Cl)c(F)c34)cc2C#N)C1 [Example 319, (R)-5-(5-(1-(3,5-dichloropyridin-4-yl)ethoxy)-4-fluoro-1H-indazol-3-yl)-2-(3-(isopropylamino)-3-methylazetidin-1-yl)nicotinonitrile]
Kd [1]: > 1000 nM
Kd [2]: 50 to 300 nM
Kd [3]: > 1000 nM
Kd [4]: 300 to 1000 nM
Kd [5]: > 1000 nM

C[C@@H](Oc1ccc2[nH]nc(-c3cnc(N4CC(C)(NCC5CC5)C4)c(F)c3)c2c1F)c1c(Cl)cncc1Cl [Example 174, (R)-N-(cyclo-propylmethyl)-1-(5-(5-(1-(3,5-dichloropyridin-4-yl)ethoxy)-4-fluoro-1H-indazol-3-yl)-3-fluoropyridin-2-yl)-3-methylazetidin-3-amine]
Kd [1]: 50 to 300 nM
Kd [2]: 50 to 300 nM
Kd [3]: 300 to 1000 nM
Kd [4]: 50 to 300 nM
Kd [5]: > 1000 nM

CC(C)NCC1(C)CN(c2ncc(-c3n[nH]c4ccc(O[C@H](C)c5c(Cl)cncc5Cl)c(F)c34)cc2C#N)C1 [Example 326, (R)-5-(5-(1-(3,5-dichloropyridin-4-yl)ethoxy)-4-fluoro-1H-indazol-3-yl)-2-(3-((isopropylamino)methyl)-3-methylazetidin-1-yl)nicotinonitrile]
Kd [1]: > 1000 nM
Kd [2]: 1 to 50 nM
Kd [3]: > 1000 nM
Kd [4]: > 1000 nM
Kd [5]: > 1000 nM

COc1cc2[nH]nc(-c3cnc(N4CC(C)(CS(C)(=O)=O)C4)c(F)c3)c2cc1O[C@H](C)c1c(Cl)cncc1Cl [Example 194, (R)-5-(1-(3,5-dichloropyridin-4-yl)ethoxy)-3-(5-fluoro-6-(3-methyl-3-((methyl-sulfonyl)meth-yl)azetidin-1-yl)pyridin-3-yl)-6-methoxy-1H-indazole]
Kd [1]: 1 to 50 nM
Kd [2]: 1 to 50 nM
Kd [3]: 1 to 50 nM
Kd [4]: 1 to 50 nM
Kd [5]: 1 to 50 nM

COc1cc2[nH]nc(-c3cnc(N4CCC4)c(F)c3)c2cc1O[C@H](C)c1c(Cl)cnc(C)c1Cl [Example 58, 3-[6-(azetidin-1-yl)-5-fluoro-3-pyridyl]-5-[(1R)-1-(3,5-dichloro-2-methyl-4-pyridyl)ethoxy]-6-methoxy-1H-indazole]
Kd [1]: 1 to 50 nM
Kd [2]: 1 to 50 nM
Kd [3]: 50 to 300 nM
Kd [4]: 1 to 50 nM
Kd [5]: 1 to 50 nM

C[C@@H](Oc1ccc2[nH]nc(-c3ccc(N4CC(C)(OCCO)C4)nc3)c2c1)c1c(Cl)cncc1Cl [Example 92, (R)-2-((1-(5-(5-(1-(3,5-dichloropyridin-4-yl)ethoxy)-1H-indazol-3-yl)pyridin-2-yl)-3-methylazetidin-3-yl)oxy)ethan-1-ol]
Kd [1]: 1 to 50 nM
Kd [2]: 1 to 50 nM
Kd [3]: 1 to 50 nM
Kd [4]: 1 to 50 nM
Kd [5]: 1 to 50 nM

CNC1(C)CN(c2ncc(-c3n[nH]c4ccc(O[C@H](C)c5c(Cl)cncc5Cl)c(F)c34)cc2F)C1 [Example 197, (R)-1-(5-(5-(1-(3,5-dichloropyridin-4-yl)ethoxy)-4-fluoro-1H-indazol-3-yl)-3-fluoropyridin-2-yl)-N,3-dimethylazetidin-3-amine]
Kd [1]: 50 to 300 nM
Kd [2]: 50 to 300 nM
Kd [3]: 300 to 1000 nM
Kd [4]: 1 to 50 nM
Kd [5]: > 1000 nM

C[C@@H](Oc1ccc2[nH]nc(-c3ccc(N4CC(C)(CNS(C)(=O)=O)C4)nc3)c2c1)c1c(Cl)cncc1Cl [Example 69, (R)-N-((1-(5-(5-(1-(3,5-dichloropyridin-4-yl)ethoxy)-1H-indazol-3-yl)pyridin-2-yl)-3-methylazetidin-3-yl)methyl)methane-sulfonamide]
Kd [1]: 1 to 50 nM
Kd [2]: 1 to 50 nM
Kd [3]: 1 to 50 nM
Kd [4]: 1 to 50 nM
Kd [5]: 1 to 50 nM

C[C@@H](Oc1ccc2[nH]nc(-c3ccc(N4CC[C@@](C)(N)C4)nn3)c2c1)c1c(Cl)cncc1Cl [Example 406, (R)-1-(6-(5-((R)-1-(3,5-dichloropyridin-4-yl)ethoxy)-1H-indazol-3-yl)pyridazin-3-yl)-3-methylpyrrolidin-3-amine]
Kd [1, 6]: 1 to 50 nM
Kd [3, 6]: 1 to 50 nM

C[C@@H](Oc1ccc2[nH]nc(-c3cnc(N4CC(C)(NCC(=O)N(C)C)C4)c(F)c3)c2c1)c1c(Cl)cncc1Cl [Example 311, (R)-2-((1-(5-(5-(1-(3,5-dichloropyridin-4-yl)ethoxy)-1H-indazol-3-yl)-3-fluoropyridin-2-yl)-3-methylazetidin-3-yl)amino)-N,N-dimethylacetamide]
Kd [1]: 1 to 50 nM
Kd [3]: 1 to 50 nM

C[C@@H](O)CC1(N)CN(c2ccc(-c3n[nH]c4ccc(O[C@H](C)c5c(Cl)cncc5Cl)cc34)nn2)C1 [Example 374, (R)-1-(3-amino-1-(6-(5-((R)-1-(3,5-dichloropyridin-4-yl)ethoxy)-1H-indazol-3-yl)pyridazin-3-yl)azetidin-3-yl)propan-2-ol]
Kd [1]: 1 to 50 nM
Kd [3]: 1 to 50 nM

COc1cc2[nH]nc(-c3ccc(N4CCC(C)(N)CC4)nc3)c2cc1O[C@H](C)c1c(Cl)cncc1Cl [Example 382, (R)-1-(5-(5-(1-(3,5-dichloropyridin-4-yl)ethoxy)-6-methoxy-1H-indazol-3-yl)pyridin-2-yl)-4-methylpiperidin-4-amine]
Kd [1, 6]: 1 to 50 nM
Kd [3, 6]: 1 to 50 nM

C[C@@H](Oc1ccc2[nH]nc(-c3cnc(N4CC[C@@](C)(N)C4)c(F)c3)c2c1)c1c(Cl)cncc1Cl [Example 400, (R)-1-(5-(5-((R)-1-(3,5-dichloropyridin-4-yl)ethoxy)-1H-indazol-3-yl)-3-fluoropyridin-2-yl)-3-methylpyrrolidin-3-amine]
Kd [1, 6]: 1 to 50 nM
Kd [3, 6]: 1 to 50 nM

C[C@@H](Oc1ccc2[nH]nc(-c3cnc(N4CC(N)(CC(F)F)C4)c(F)c3)c2c1)c1c(Cl)cncc1Cl [Example 394, (R)-1-(5-(5-(1-(3,5-dichloropyridin-4-yl)ethoxy)-1H-indazol-3-yl)-3-fluoropyridin-2-yl)-3-(2,2-difluoro-ethyl)azetidin-3-amine]
Kd [1, 6]: 1 to 50 nM
Kd [3, 6]: 1 to 50 nM

C[C@@H](O)CC1(N)CN(c2ncc(-c3n[nH]c4ccc(O[C@H](C)c5c(Cl)cncc5Cl)cc34)cc2F)C1 [Example 385, (R)-1-(3-amino-1-(5-(5-((R)-1-(3,5-dichloropyridin-4-yl)ethoxy)-1H-indazol-3-yl)-3-fluoropyridin-2-yl)azetidin-3-yl)propan-2-ol]
Kd [1, 6]: 1 to 50 nM
Kd [3, 6]: 1 to 50 nM
